Target: T1, Bcl-2 protein (Recombinant Human Bcl-2 Protein) (Homo sapiens, UniProt P10415)
T1 construct: purchased Novus Biologicals NBP2-34889
Assay: AS-MS evaluation of binding of the Example 4 mixture library (1200 compounds/well) to Bcl-2, ASMS ratio (%)
Details: mixture library, value belongs to the MS peak assigned to the compound; for ASMS ratio (%) n = 1: replicate n = 1; for ASMS ratio (%) n = 2: replicate n = 2
Procedure, shortened: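 A pooled 1200-compound mixture (20 nM each final) was incubated with 20 μM recombinant human Bcl-2 in pH 7.4 Tris-HCl buffer with NaCl, Tween-20 and DTT for 1 h at 23° C. in the dark. Bound ligands were separated by spin-column SEC and measured by reverse-phase LC/MS; ASMS ratio (%) was calculated against protein-free unfiltered standard and protein-free SEC blank.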

T1 sequence (P10415 whole entry): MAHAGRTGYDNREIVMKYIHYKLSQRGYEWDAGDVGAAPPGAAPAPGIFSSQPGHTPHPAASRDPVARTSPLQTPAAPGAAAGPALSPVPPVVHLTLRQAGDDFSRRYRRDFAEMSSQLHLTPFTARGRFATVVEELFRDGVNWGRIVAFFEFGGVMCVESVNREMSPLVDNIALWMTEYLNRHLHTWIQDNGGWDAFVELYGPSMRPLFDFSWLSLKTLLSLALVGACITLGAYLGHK

| SMILES | ASMS ratio (%) n = 1 [%] | ASMS ratio (%) n = 2 [%] |
| --- | --- | --- |
| CCOc1cccc(C#Cc2ccccc2CN2CCN(c3ccc(C(=O)NS(C)(=O)=O)cc3)CC2)c1 [Compound B2I069-01, 4-[4-[[2-[2-(3-Ethoxyphenyl)ethynyl]phenyl]methyl]piperazin-1-yl]-N-methylsulfonylbenzamide] | 0.0 | −2.2 |
| CCOc1cncc(C#Cc2ccccc2CN2CCN(c3ccc(C(=O)NS(C)(=O)=O)cc3)CC2)c1 [Compound B2I070-01, 4-[4-[[2-[2-(5-Ethoxypyridin-3-yl)ethynyl]phenyl]methyl]piperazin-1-yl]-N-methylsulfonylbenzamide] | – | 0.0 |
| CCOc1cccc(-c2ccccc2CN2CCN(c3ccc(C(=O)NS(C)(=O)=O)nn3)CC2)c1 [Compound B2I071-01, 6-[4-[[2-(3-Ethoxyphenyl)phenyl]methyl]piperazin-1-yl]-N-methylsulfonylpyridazine-3-carboxamide] | −1.2 | −1.9 |
| CCOc1cncc(-c2ccccc2CN2CCN(c3ccc(C(=O)NS(C)(=O)=O)nn3)CC2)c1 [Compound B2I072-01, 6-[4-[[2-(5-Ethoxypyridin-3-yl)phenyl]methyl]piperazin-1-yl]-N-methylsulfonylpyridazine-3-carboxamide] | 0.8 | 1.3 |
| CCOc1cccc(-c2ccc(CN3CCN(c4ccc(C(=O)NS(C)(=O)=O)nn4)CC3)cc2C)c1 [Compound B2I073-01, 6-[4-[[4-(3-Ethoxyphenyl)-3-methylphenyl]methyl]piperazin-1-yl]-N-methylsulfonylpyridazine-3-carboxamide] | 0.0 | 0.0 |
| CCOc1cncc(-c2ccc(CN3CCN(c4ccc(C(=O)NS(C)(=O)=O)nn4)CC3)cc2C)c1 [Compound B2I074-01, 6-[4-[[4-(5-Ethoxypyridin-3-yl)-3-methylphenyl]methyl]piperazin-1-yl]-N-methylsulfonylpyridazine-3-carboxamide] | 0.0 | −8.4 |
| CCOc1cccc(-c2ccc(CN3CCN(c4ccc(C(=O)NS(C)(=O)=O)nn4)CC3)c(CC)c2)c1 [Compound B2I075-01, 6-[4-[[4-(3-Ethoxyphenyl)-2-ethylphenyl]methyl]piperazin-1-yl]-N-methylsulfonylpyridazine-3-carboxamide] | 0.0 | 0.0 |
| CCOc1cncc(-c2ccc(CN3CCN(c4ccc(C(=O)NS(C)(=O)=O)nn4)CC3)c(CC)c2)c1 [Compound B2I076-01, 6-[4-[[4-(5-Ethoxypyridin-3-yl)-2-ethylphenyl]methyl]piperazin-1-yl]-N-methylsulfonylpyridazine-3-carboxamide] | 0.2 | −3.2 |
| CCOc1cccc(-c2ccc(CN3CCN(c4ccc(C(=O)NS(C)(=O)=O)nn4)CC3)cc2F)c1 [Compound B2I077-01, 6-[4-[[4-(3-Ethoxyphenyl)-3-fluorophenyl]methyl]piperazin-1-yl]-N-methylsulfonylpyridazine-3-carboxamide] | 0.0 | 0.0 |
| CCOc1cncc(-c2ccc(CN3CCN(c4ccc(C(=O)NS(C)(=O)=O)nn4)CC3)cc2F)c1 [Compound B2I078-01, 6-[4-[[4-(5-Ethoxypyridin-3-yl)-3-fluorophenyl]methyl]piperazin-1-yl]-N-methylsulfonylpyridazine-3-carboxamide] | 0.0 | 0.0 |
| CCOc1cccc(-c2ccc(CN3CCN(c4ccc(C(=O)NS(C)(=O)=O)nn4)CC3)c(OC)c2)c1 [Compound B2I079-01, 6-[4-[[4-(3-Ethoxyphenyl)-2-methoxyphenyl]methyl]piperazin-1-yl]-N-methylsulfonylpyridazine-3-carboxamide] | 0.0 | 0.0 |
| CCOc1cncc(-c2ccc(CN3CCN(c4ccc(C(=O)NS(C)(=O)=O)nn4)CC3)c(OC)c2)c1 [Compound B2I080-01, 6-[4-[[4-(5-Ethoxypyridin-3-yl)-2-methoxyphenyl]methyl]piperazin-1-yl]-N-methylsulfonylpyridazine-3-carboxamide] | 0.0 | – |
| CCOc1cccc(-c2cc(CN3CCN(c4ccc(C(=O)NS(C)(=O)=O)nn4)CC3)cc(OCC)c2)c1 [Compound B2I081-01, 6-[4-[[3-Ethoxy-5-(3-ethoxyphenyl)phenyl]methyl]piperazin-1-yl]-N-methylsulfonylpyridazine-3-carboxamide] | 0.0 | 0.0 |
| CCOc1cncc(-c2cc(CN3CCN(c4ccc(C(=O)NS(C)(=O)=O)nn4)CC3)cc(OCC)c2)c1 [Compound B2I082-01, 6-[4-[[3-Ethoxy-5-(5-ethoxypyridin-3-yl)phenyl]methyl]piperazin-1-yl]-N-methylsulfonylpyridazine-3-carboxamide] | 0.0 | 1.9 |
| CCOc1cccc(-c2cc(CN3CCN(c4ccc(C(=O)NS(C)(=O)=O)nn4)CC3)cc(OC(C)C)c2)c1 [Compound B2I083-01, 6-[4-[[3-(3-Ethoxyphenyl)-5-propan-2-yloxyphenyl]methyl]piperazin-1-yl]-N-methylsulfonylpyridazine-3-carboxamide] | 0.0 | 0.0 |
| CCOc1cncc(-c2cc(CN3CCN(c4ccc(C(=O)NS(C)(=O)=O)nn4)CC3)cc(OC(C)C)c2)c1 [Compound B2I084-01, 6-[4-[[3-(5-Ethoxypyridin-3-yl)-5-propan-2-yloxyphenyl]methyl]piperazin-1-yl]-N-methylsulfonylpyridazine-3-carboxamide] | −0.9 | −1.5 |
| CCOc1cccc(-c2cc(OC)c(CN3CCN(c4ccc(C(=O)NS(C)(=O)=O)nn4)CC3)c(OC)c2)c1 [Compound B2I085-01, 6-[4-[[4-(3-Ethoxyphenyl)-2,6-dimethoxyphenyl]methyl]piperazin-1-yl]-N-methylsulfonylpyridazine-3-carboxamide] | 0.0 | 0.0 |
| CCOc1cncc(-c2cc(OC)c(CN3CCN(c4ccc(C(=O)NS(C)(=O)=O)nn4)CC3)c(OC)c2)c1 [Compound B2I086-01, 6-[4-[[4-(5-Ethoxypyridin-3-yl)-2,6-dimethoxyphenyl]methyl]piperazin-1-yl]-N-methylsulfonylpyridazine-3-carboxamide] | 0.0 | 0.0 |
| CCOc1cccc(-c2cc(CN3CCN(c4ccc(C(=O)NS(C)(=O)=O)nn4)CC3)cc(C(F)(F)F)c2)c1 [Compound B2I087-01, 6-[4-[[3-(3-Ethoxyphenyl)-5-(trifluoromethyl)phenyl]methyl]piperazin-1-yl]-N-methylsulfonylpyridazine-3-carboxamide] | 1.3 | −0.9 |
| CCOc1cncc(-c2cc(CN3CCN(c4ccc(C(=O)NS(C)(=O)=O)nn4)CC3)cc(C(F)(F)F)c2)c1 [Compound B2I088-01, 6-[4-[[3-(5-Ethoxypyridin-3-yl)-5-(trifluoromethyl)phenyl]methyl]piperazin-1-yl]-N-methylsulfonylpyridazine-3-carboxamide] | 0.0 | 0.0 |

Reference: patent US20250154686A1, “COMPOUND LIBRARY” (CHUGAI SEIYAKU KABUSHIKI KAISHA, priority 2021, published 2025)
